ChEMBL document CHEMBL6109155, “Discovery of Phenylacylpiperidine as Novel sEH Inhibitors through Scaffold Hopping of Natural Stilbene” (J Med Chem, 2025)
Activity calls are given as the source filed them. The calls are words filed in the database; no cut-off is given here.

Key:
Rattus norvegicus [1] = test: Anti-inflammatory activity in Sprague-Dawley rat model of CFA-induced rheumatoid arthritis assessed as […] in connective tissue proliferation in synovial tissue at 10 mg/kg, po administered daily measured after 19 days by H and E staining based analysis; assay type: functional, organism-based; details: time 19.0 day
Mus musculus [2] = test: Anti-inflammatory activity in BALB/c mouse model of carrageenan-induced paw edema assessed as increase in plasma 8,9-EET levels at 10 mg/kg, po measured after 6 hrs relative to control; assay type: functional
Mus musculus [3] = test: Anti-inflammatory activity in BALB/c mouse model of carrageenan-induced paw edema assessed as inhibition of paw swelling at 10 mg/kg, po measured up to 6 hrs relative to control; assay type: functional; details: Mus musculus, BALB/c
Cytochrome P450 2D6 = Cytochrome P450 2D6 (Homo sapiens, UniProt P10635); test: Inhibition of CYP2D6 in human liver microsomes preincubated for 10 mins followed by NADPH addition measured after 3.5 mins by LC-MS/MS analysis; assay type: ADME, Microsome
Mus musculus [4] = test: Anti-inflammatory activity in BALB/c mouse model of carrageenan-induced paw edema assessed as decrease in plasma 8,9-DHET levels at 10 mg/kg, po measured after 6 hrs relative to control; assay type: functional; set-up: scale not given: the % may be the effect or the level left
[5] = AUC (0 to 24 hrs) in liver of C57BL/6J mouse at 20 mg/kg, po measured for 24 hrs; assay type: ADME, organism-based
Rattus norvegicus [6] = test: Anti-inflammatory activity in Sprague-Dawley rat model of CFA-induced rheumatoid arthritis assessed as decrease in joint deformity at 10 mg/kg, po administered daily measured after 7 days; assay type: functional, organism-based; details: time 7.0 day
Mus musculus [7] = test: Anti-inflammatory activity in BALB/c mouse model of carrageenan-induced paw edema assessed as decrease in plasma 14,15-DHET levels at 10 mg/kg, po measured after 6 hrs relative to control; assay type: functional; set-up: scale not given: the % may be the effect or the level left
Mus musculus [8] = test: Anti-inflammatory activity in BALB/c mouse model of carrageenan-induced paw edema assessed as inhibition of paw swelling at 20 mg/kg, po measured up to 6 hrs relative to control; assay type: functional
Rattus norvegicus [9] = test: Anti-inflammatory activity in Sprague-Dawley rat model of CFA-induced rheumatoid arthritis assessed as BS/BV value at 10 mg/kg, po administered daily measured after 19 days by micro-CT analysis (reference value: 17.147 %); assay type: functional; details: time 19 day
Cytochrome P450 1A2 = molecular target: T1, Cytochrome P450 1A2 (Homo sapiens, UniProt P05177); test: Inhibition of CYP1A2 in human liver microsomes preincubated for 10 mins followed by NADPH addition measured after 3.5 mins by LC-MS/MS analysis; assay type: ADME, Microsome
T1 sequence (P05177 whole entry): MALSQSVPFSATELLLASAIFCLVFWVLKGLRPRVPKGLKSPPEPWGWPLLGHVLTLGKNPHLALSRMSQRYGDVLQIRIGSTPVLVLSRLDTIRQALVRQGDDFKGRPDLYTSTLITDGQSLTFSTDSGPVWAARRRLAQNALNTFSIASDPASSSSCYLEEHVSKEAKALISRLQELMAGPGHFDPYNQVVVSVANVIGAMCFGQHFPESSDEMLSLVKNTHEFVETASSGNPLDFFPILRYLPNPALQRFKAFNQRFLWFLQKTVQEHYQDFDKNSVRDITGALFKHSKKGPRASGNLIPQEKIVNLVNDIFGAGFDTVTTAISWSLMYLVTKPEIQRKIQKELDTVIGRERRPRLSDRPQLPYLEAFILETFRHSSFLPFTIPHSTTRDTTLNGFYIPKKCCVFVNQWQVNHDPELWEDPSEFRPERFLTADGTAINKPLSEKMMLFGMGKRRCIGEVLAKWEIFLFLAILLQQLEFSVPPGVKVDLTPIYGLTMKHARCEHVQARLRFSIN

Mus musculus [10] = test: Anti-inflammatory activity in CD-1 mouse model of cerulein-induced acute pancreatitis assessed as decrease in neutrophil infiltration in pancreas at 10 mg/kg, ip drug administered at 30 mins and 2.5 hrs post-first cerulein injection and measured after 6 hrs post-first cerulein injection by H and E staining based analysis; assay type: functional, organism-based; details: time 3.5-5.5 hrs
Mus musculus [11] = test: Anti-inflammatory activity in BALB/c mouse model of carrageenan-induced paw edema assessed as increase in ratio of 8,9-EET to DHET plasma levels at 10 mg/kg, po measured after 6 hrs relative to control; assay type: functional
[12] = Half life in Sprague-Dawley rat at 20 mg/kg, po measured for 24 hrs; assay type: ADME, organism-based; details: in vivo
[13] = Volume of distribution in Sprague-Dawley rat at 5 mg/kg, iv measured for 24 hrs; assay type: ADME, organism-based; details: in vivo
[14] = Ratio of AUC (0 to 24 hrs) in liver to plasma in C57BL/6J mouse at 20 mg/kg, po measured for 24 hrs; assay type: ADME, organism-based; details: liver and plasma, read-out: Ratio AUC
Mus musculus [15] = test: Anti-inflammatory activity in CD-1 mouse model of cerulein-induced acute pancreatitis assessed as increase in ratio of plasma 8,9-EET/DHET level at 10 mg/kg, ip drug administered at 30 mins and 2.5 hrs post-first cerulein injection and measured after 6 hrs post-first cerulein injection (reference value: 69.8 to 77.3 %); assay type: functional; details: time 3.5-5.5 hrs
Mus musculus [16] = test: Anti-inflammatory activity in BALB/c mouse model of carrageenan-induced paw edema assessed as increase in plasma 14,15-EET levels at 10 mg/kg, po measured after 6 hrs relative to control; assay type: functional
Mus musculus [17] = test: Anti-inflammatory activity in BALB/c mouse model of carrageenan-induced paw edema assessed as decrease in plasma 11,12-DHET levels at 10 mg/kg, po measured after 6 hrs relative to control; assay type: functional; set-up: scale not given: the % may be the effect or the level left
[18] = Ratio of AUC (0 to 24 hrs) in kidney to plasma in C57BL/6J mouse at 20 mg/kg, po measured for 24 hrs; assay type: ADME, organism-based; details: kidney and plasma, read-out: Ratio AUC
Mus musculus [19] = test: Anti-inflammatory activity in BALB/c mouse model of carrageenan-induced paw edema at 20 mg/kg, po measured for 0.5 to 6 hrs; assay type: functional, organism-based; details: time 0.5-6 hrs
Rattus norvegicus [20] = test: Anti-inflammatory activity in Sprague-Dawley rat model of CFA-induced rheumatoid arthritis assessed as increase in plasma 14,15-EET level at 10 mg/kg, po administered daily measured after 19 days relative to control; assay type: functional; details: time 19 day
[21] = Cmax in kidney of C57BL/6J mouse at 20 mg/kg, po measured for 24 hrs; assay type: ADME, organism-based
Rattus norvegicus [22] = test: Anti-inflammatory activity in Sprague-Dawley rat model of CFA-induced rheumatoid arthritis assessed as decrease in swelling degree of left paw at 10 mg/kg, po administered daily measured after 16 to 19 days; assay type: functional, organism-based; details: time 16-19 day
Rattus norvegicus [23] = test: Anti-inflammatory activity in Sprague-Dawley rat model of CFA-induced rheumatoid arthritis assessed as BV value at 10 mg/kg, po administered daily measured after 19 days by micro-CT analysis (reference value: 37.091 mm3); assay type: functional; details: time 19 day
Rattus norvegicus [24] = test: Anti-inflammatory activity in Sprague-Dawley rat model of CFA-induced rheumatoid arthritis assessed as decrease in lymphocytes infiltration in synovial tissue at 10 mg/kg, po administered daily measured after 19 days by H and E staining based analysis; assay type: functional, organism-based; details: time 19.0 day
Rattus norvegicus [25] = test: Anti-inflammatory activity in Sprague-Dawley rat model of CFA-induced rheumatoid arthritis assessed as increase in ratio of plasma 14,15-EET to DHET levels at 10 mg/kg, po administered daily measured after 19 days relative to control; assay type: functional; details: time 19 day
[26] = AUC (0 to 24 hrs) in plasma of C57BL/6J mouse at 20 mg/kg, po measured for 24 hrs; assay type: ADME, organism-based

Chain of Cytochrome P450 2D6 (P10635 whole entry): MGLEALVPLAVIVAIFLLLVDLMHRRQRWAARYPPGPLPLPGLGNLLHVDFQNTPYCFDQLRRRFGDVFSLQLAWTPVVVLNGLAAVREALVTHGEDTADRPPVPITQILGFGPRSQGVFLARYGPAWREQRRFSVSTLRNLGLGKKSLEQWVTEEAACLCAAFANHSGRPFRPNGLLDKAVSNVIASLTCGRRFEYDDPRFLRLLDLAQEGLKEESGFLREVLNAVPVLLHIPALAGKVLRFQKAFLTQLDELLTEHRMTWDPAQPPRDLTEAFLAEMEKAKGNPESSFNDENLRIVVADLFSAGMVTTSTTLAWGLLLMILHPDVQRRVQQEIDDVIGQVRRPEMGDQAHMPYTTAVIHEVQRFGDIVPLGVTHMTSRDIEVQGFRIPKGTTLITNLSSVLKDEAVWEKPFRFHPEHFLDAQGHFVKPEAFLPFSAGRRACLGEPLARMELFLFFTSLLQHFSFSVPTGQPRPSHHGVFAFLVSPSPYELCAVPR

COc1cc(CC(=O)N2CCC(NC(=O)NCc3ccc(OC(F)(F)F)cc3)CC2)cc(OC)c1
Activity (Rattus norvegicus [1]): Active; Minimal Connective Tissue Proliferation Was Observed
Activity (Mus musculus [2]): 28.7%
inhibition in vivo at 10 mg/kg (Mus musculus [3]): 38.8%
IC50 (Cytochrome P450 2D6): 46.8 µM
Activity (Mus musculus [4]): 70.3%
AUC(0-t) at 24 h [5]: 27100 ng·h/mL
Activity (Rattus norvegicus [6]): Active
Activity (Mus musculus [7]): 69.8%
inhibition in vivo at 20 mg/kg (Mus musculus [8]): 44.6%
Activity (Rattus norvegicus [9]): 11.923%
IC50 (Cytochrome P450 1A2): > 50 µM
Activity (Mus musculus [10]): Active
Activity (Mus musculus [11]): 355%
half-life [12]: 1.89 h
Vd [13]: 1.39 L/kg
Kp at 24 h [14]: 50.9
Activity (Mus musculus [15]): 558%
Activity (Mus musculus [16]): 128%
Activity (Mus musculus [17]): 55.1%
Kp at 24 h [18]: 32.4
Activity (Mus musculus [19]): Active
Activity (Rattus norvegicus [20]): 175%
Cmax [21]: 4540 ng/g
Activity (Rattus norvegicus [22]): Active
Activity (Rattus norvegicus [23]): 36.234 mm3
Activity (Rattus norvegicus [24]): Active; Small Lymphocytes Infiltration Was Observed
Activity (Rattus norvegicus [25]): 463%
AUC(0-t) at 24 h [26]: 532 ng·h/mL
